Assay results: patent US11076597B2, “High stress resistant plant growth regulator and preparation method and use thereof” (SHANGHAI INSTITUTES FOR BIOLOGICAL SCIENCES, CHINESE …, priority 2015, dated 2021)
pEC50: −log10 of the molar value. “Also recorded” adds a separate entry of the source. Like-named read-outs stand apart in the source and are kept apart here.

How the values were obtained:
[1] = target: T1, PYL7 receptor-HAB1 protein phosphatase complex (Arabidopsis thaliana, UniProt Q1ECF1); test: AlphaScreen assay: promotion of PYL7 receptor binding to PP2C protein phosphatase HAB1
T1 construct: made in house; host or cells: E. coli BL21 (DE3)
T1 sequence (Q1ECF1 1-211): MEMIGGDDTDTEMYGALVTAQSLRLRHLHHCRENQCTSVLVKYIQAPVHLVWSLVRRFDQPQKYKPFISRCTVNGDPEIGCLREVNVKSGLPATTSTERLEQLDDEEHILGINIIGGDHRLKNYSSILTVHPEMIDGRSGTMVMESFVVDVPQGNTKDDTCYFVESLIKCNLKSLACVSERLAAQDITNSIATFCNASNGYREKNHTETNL
T1 sequence (Q9CAJ0 172-511 partner limits assumed): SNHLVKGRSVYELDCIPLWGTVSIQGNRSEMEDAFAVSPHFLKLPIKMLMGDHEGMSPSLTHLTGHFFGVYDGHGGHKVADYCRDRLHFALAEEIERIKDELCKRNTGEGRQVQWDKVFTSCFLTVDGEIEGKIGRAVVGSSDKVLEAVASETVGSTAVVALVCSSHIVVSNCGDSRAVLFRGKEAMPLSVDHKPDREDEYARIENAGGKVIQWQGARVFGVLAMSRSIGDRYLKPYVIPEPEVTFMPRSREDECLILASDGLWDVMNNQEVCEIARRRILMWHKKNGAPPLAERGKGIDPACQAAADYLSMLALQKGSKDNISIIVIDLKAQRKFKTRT
Source text: The construction method of recombinant plasmids for the Arabidopsis thaliana genes PYL1 (amino acid sequence 36-211), PYL2 (amino acid sequence 14-188) with dual tags of 6×His and SUMO sequence and the Arabidopsis thaliana gene HAB1 (amino acid sequence 172-511) with the Biotin tag sequence is described in detail in “A gate-latch-lock mechanism for hormone signaling by abscisic acid receptors” (Nature, Vol 462, 2009). The construction method of recombinant plasmids for PYR1 and PYL7 (whole gene coding sequence) and Soybean GmPYL6 and rice OsPYL2 with dual tags of 6×His and SUMO sequence is the same as that for Arabidopsis PYL2.
The above recombinant plasmid is transformed into competent cell of E. coli BL21 (DE3) (purchased from NEB company), and inoculated into 200 ml of LB liquid medium containing Amp resistance (purchased from OXOID company) and cultured overnight at 37° C. at 200 rpm; and inoculated into 2 L of LB liquid medium containing Amp resistance at a ratio of 1:50-1:100 for an extended culture, and cultured at 37° C., 200 rpm for 3-4 hours, and at a low temperature of 16° C. until OD600 is about 0.8-1.0. Recombinant plasmids for PYR1/PYL1/PYL2/PYL7/GmPYL6/OsPYL2 with dual tags of 6×His and SUMO sequence were induced overnight with 100 μM of IPTG while HAB1 recombinant plasmid with the Biotin tag sequence was induced simultaneously with 100 μM of IPTG and 40 μM of biotin.
After 16 hours of induction, the bacterial solution was centrifuged at 4000 rpm for 20 minutes at 4° C. in a low-speed high-capacity centrifuge, and the bacteria cells were collected. Bacteria cells were resuspended in 50 ml of extraction buffer (containing 20 mM Tris, pH 8.0, 200 mM NaCl and 10% (v/v) glycerol) for per 2 L of bacterial solution and then subjected to pressure-breaking at […] and 4° C. for 3-5 times. The broken cells were subjected to ultracentrifugation, centrifuged at 16000 rpm for 30 minutes, and this process was repeated twice. The supernatant was collected and subjected to an affinity chromatography column. […]

[2] = system: soybean; test: Leaf transpiration experiment, soybean; format: in vivo; settings: 20 μM spray 14 days after sowing, two days after spraying; FIG. 5
Experimental: ABA synthesis mutant aba2-1 was used in Arabidopsis leaf transpiration experiment. […] Therefore, this mutant is used to exclude the effect of endogenous ABA on the transpiration experiment. The plants were sprayed with a solution containing 0.05% tween-20 and corresponding concentrations of (+)-ABA/0224/0304/0706/0715/0428 or 0.05% Tween-20 and 0.05% DMSO (control) after three weeks of continuous watering with an amount of 1.2 ml/pot. Leaf transpiration experiments of soybeans were conducted at 26° C. with long-day lighting and soybeans were sprayed with a solution containing 0.1% tween-20 and 20 μM (+)-ABA/0224/0304 compound or 0.1% Tween-20 and 0.05% DMSO (control) 14 days after sowing with an amount of 4 ml/pot; the leaf transpiration experiments of cottons were sprayed with a solution containing 0.1% tween-20 and 20 μM (+)-ABA/0224 compound or 0.1% Tween-20 and 0.05% DMSO, respectively, 25 days after sowing with an amount of 4 ml/pot; the leaf transpiration experiments of wheats were sprayed with a solution containing 0.1% tween-20 and 100 μM (+)-ABA/0224 compound or 0.1% Tween-20 and 0.05% DMSO (control) 18 days after sowing with an amount of 6 ml/pot. Images were taken daily using the FLIR A655sc thermal imager at the same time before and after spraying.
In this experiment, the temperature change of leaf surface was observed and recorded by an infrared camera, thus reflecting the strength of plant transpiration. The stronger the transpiration, the lower the leaf temperature.

[3] = FIG. 2d, 6×His-SUMO-tagged PYL7 (whole coding sequence), Biotin-tagged HAB1 (aa 172-511), 100 nM each, pH 7.4, 1.5 h room temperature, read-out: EC50

Row | pEC50 [1, 3] | Compound | pEC50 [1] | leaf temperature versus DMSO control (leaf transpiration) [2]
1 |  | CC1=CC(=O)CC(C)(C)[C@@]1(O)/C=C/C(C)=C\C(=O)O [ABA, Abscisic Acid, reference compound] | 5.94 | had no difference from that in the control group
2 | 6.92 | CCCN1C(=O)OC(C)c2cc(NS(=O)(=O)Cc3c(F)c(F)c(C)c(F)c3F)ccc21 (stereo not drawn) [Compound 0224] |  | significantly reduce the transpiration rate of soybean leaf; also recorded: still significant higher than that of plants in DMSO-sprayed control group
3 | 6.92 | CCCN1C(=O)OC(C)(C)c2cc(NS(=O)(=O)Cc3c(F)c(F)c(C)c(F)c3F)ccc21 [Compound 0304] |  | significantly reduce the transpiration rate of soybean leaf; also recorded: still significant higher than that of plants in DMSO-sprayed control group
